Laboratory results: publication PMC2967639 (Drug and alcohol dependence, 2010)

Experiments:
male ICR mice = assay: mouse tetrad assay; format: in vivo
CB1 receptor = conditions: ref Booker et al., 2009; cited from earlier work
[1] = blood and brain tissue concentrations of THC and CBC by GC/MS; format: in vivo, mouse
LPS-induced paw edema [2] = assay: LPS-induced paw edema model; format: in vivo, mouse; conditions: for LPS-induced paw edema (change in paw thickness of LPS-injected paw): i.p. 1 h before, 6 and 23 h after LPS, dose-response, measured 24 h, Figure 4A; for paw thickness of the LPS-injected paw, post hoc vs vehicle: 10, 30 and 100 mg/kg CBC, 10 and 30 mg/kg THC; for paw thickness of the saline-injected (contralateral) paw: data not shown; for effect of antagonist given alone on LPS paw edema: 3 mg/kg i.p. 30 min before each vehicle injection
[3] = ref Hunt et al., 1980; Widman et al., 1974; cited from earlier work
LPS-induced paw edema [4] = conditions: ref Naidu et al., under review; cited from earlier work
wild type mice = conditions: i.v., ref Smith et al., 1994; cited from earlier work

Compound: CCCCCc1cc(O)c2c(c1)OC(C)(CCC=C(C)C)C=C2 (centres unmarked) [CBC, cannabichromene]
- potency in the tetrad relative to THC (male ICR mice; i.v.): substantially less potent than THC
- Ki (CB1 receptor): > 10 µM
- effect of CBC on THC levels in brain ([1]; 30 or 100 mg/kg CBC i.v. with THC 0.3 mg/kg i.v.): significantly elevated
- CBC levels in blood with increasing doses of CBC ([1]; CBC 3-100 mg/kg i.v., with or without THC 0.3 mg/kg, 30 min, Figure 3C): significant increases
- CBC levels in brain with increasing doses of CBC ([1]; CBC 3-100 mg/kg i.v., with or without THC 0.3 mg/kg, 30 min, Figure 3D): significant increases
- LPS-induced paw edema (change in paw thickness of LPS-injected paw) (LPS-induced paw edema [2]): dose-related decreases
- paw thickness of the LPS-injected paw, post hoc vs vehicle (LPS-induced paw edema [2]; i.p.): significant decreases
- paw thickness of the saline-injected (contralateral) paw (LPS-induced paw edema [2]; i.p.): neither drug affected the paw thickness

Compound: CCCCCc1cc(O)c2c(c1)OC(C)(C)[C@@H]1CCC(C)=C[C@@H]21 [THC, Δ^9-tetrahydrocannabinol]
- activity in the tetrad at threshold dose (male ICR mice; THC 0.3 mg/kg i.v.): inactive
- effect of THC on CBC blood and brain levels ([1]; THC 0.3 mg/kg i.v. 10 min after CBC 3-100 mg/kg i.v.): no effects
- THC in blood bound to plasma [3]: About 90%
- THC in blood bound to red blood cells [3]: 10%
- plasma THC bound to lipoproteins [3]: 95 – 99%
- LPS-induced paw edema (change in paw thickness of LPS-injected paw) (LPS-induced paw edema [2]): dose-related decreases
- paw thickness of the LPS-injected paw, post hoc vs vehicle (LPS-induced paw edema [2]; i.p.): significant decreases
- paw thickness of the saline-injected (contralateral) paw (LPS-induced paw edema [2]; i.p.): neither drug affected the paw thickness
- ED50 (95% confidence intervals), LPS-induced paw edema (LPS-induced paw edema [2]; individual dose-response curves, i.p.): 4.0 (2.7 to 5.9) mg/kg

Compound: NC(=O)c1cccc(-c2cccc(OC(=O)NC3CCCCC3)c2)c1 [URB597]
- effect on LPS induced paw edema (LPS-induced paw edema [4]): ameliorated LPS induced paw edema

Compound: Cc1c(C(=O)c2cccc3ccccc23)c2cccc3c2n1[C@H](CN1CCOCC1)CO3 [WIN55,212-2]
- effect on LPS induced paw edema (LPS-induced paw edema [4]): ameliorated LPS induced paw edema

Compound: CCCCC/C=C\C/C=C\C/C=C\C/C=C\CCCC(=O)NCCO [anandamide]
- fold less potent in producing antinociception than hypomotility, catalepsy and hypothermia (wild type mice): 3 – 4 fold

Compound: C[C@@H]1C[C@H]2[C@@H]3CCC4=CC(=O)C=C[C@]4(C)[C@@]3(F)[C@@H](O)C[C@]2(C)[C@@]1(O)C(=O)CO [dexamethasone]
- effect on LPS induced paw edema (LPS-induced paw edema [4]): ameliorated LPS induced paw edema

Compound: Cc1c(C(=O)NN2CCCCC2)nn(-c2ccc(Cl)cc2Cl)c1-c1ccc(Cl)cc1 [rimonabant]
- blockade of the tetrad effects of CBC (male ICR mice; rimonabant 3 mg/kg 10 min before CBC 100 mg/kg i.v.): failed to block the pharmacological effects of CBC
- main effect of rimonabant on the four tetrad measures (male ICR mice; rimonabant 3 mg/kg, 10 min before vehicle or CBC 100 mg/kg): no significant main effects
- effect of antagonist given alone on LPS paw edema (LPS-induced paw edema [2]): Neither rimonabant nor SR144528 given alone affected LPS paw edema
- antagonism of the anti-edematous effects of THC (LPS-induced paw edema [2]; antagonist 3 mg/kg 30 min before each THC 10 mg/kg i.p. injection, Figure 4B): but not rimonabant

Compound: SR144528
- effect of antagonist given alone on LPS paw edema (LPS-induced paw edema [2]): Neither rimonabant nor SR144528 given alone affected LPS paw edema
